Test results reported in patent US4973675A, “Hybrid nitrosoureidoanthracyclines having antitumor activity” (University of Tennessee Research Center, priority 1989, dated 1990).
“Also recorded” adds a separate entry of the source.

Experiments:
murine P388 leukemia = test: In vivo antitumor activity vs. murine P388 (P388/S) leukemia; parameters: species or system murine (B6D2F1 males); settings: for Long-term survivors / Median increase in lifespan / Median survival / Net mean percent weight change, day 7 / Range of deaths (dying animals) / Range of death (dying animals): ip
From the text: Initial studies utilized a multiple dose schedule, with drug administered once daily on days 1, 2, 3 and 4. […] The marked activity of AD 312 in this system has been confirmed in multiple separate experiments.
Additional studies were done with AD 312 vs. murine P388/S under more demanding conditions of assay.
^a Summary results of 4 separate experiments. B6D2F1 males; 1 ×

red blood cells = test: Hematotoxicity study in non-tumor-bearing animals, red blood cell count; format: in vivo, mice; settings: 3 dose levels
From the text: Clinically and in laboratory animals, anthracycline antibiotics and chloroethylnitrosourea alkylating agents currently used in medical oncology are known to be strongly myelosuppressive, with the effects of the alkylating agents on suppression of bone marrow activity being particularly profound and long-lasting.

[1] = test system: murine P388/adriamycin-resistant leukemia; test: In vivo antitumor activity vs. murine P388/adriamycin-resistant leukemia (P388/ADR); settings: for Median increase in lifespan / Net mean percent weight change, day 7 / Long-term survivors / Range of death (dying animals): ip; for Long-term survivors: sacrifice day 60
From the text: Assays were run essentially according to the established protocols of the U.S. National Cancer Institute (Geran et al., 1972 "Protocols for Screening Chemical Agents and Natural Products Against Animal Tumors and Other Biological Systems" (3rd Ed.), Cancer Chemotherapy Rep. [3]33, 1-103.), with the test agent given at 3-5 incremental dose levels in each screening experiment and with median survival of treated groups referenced against data for untreated controls.
*B6D2F1 males; 1 × 10^6 tumor cell inoculum ip day 0; treatment

[2] = P388/S, 17.5 mg/kg/day, days 1-4
[3] = P388/S, single dose 40.5 mg/kg day 1
[4] = P388/S, single dose 40.5 mg/kg day 3
[5] = P388/ADR, single dose 40.5 mg/kg day 1

## COc1cccc2c1C(=O)c1c(O)c3c(c(O)c1C2=O)C[C@@](O)(C(C)=O)C[C@@H]3O[C@H]1C[C@H](NC(=O)N(CCCl)N=O)[C@H](O)[C@H](C)O1 [AD 312, 2-chloroethylnitrosoureidodaunorubicin]
Murine P388 leukemia; [2]
  60-day survival: 100%
  drug toxicity: without evidence of drug toxicity
Murine P388 leukemia; P388/S, gross examination at termination
  autopsy of surviving animals: no evidence of tumor or other abnormalities was observed on gross examination
Murine P388 leukemia; [3]
  60-day survival: 100%
  antitumor effect: significant antitumor effect
  dose toxicity: nontoxic
Murine P388 leukemia; [4]
  animals cured: 6 of 7
  day of the lone death: 45 days
Murine P388 leukemia; 0.5 mg/kg qd 1-4
  Long-term survivors: 0/7
  Median increase in lifespan: +10%
  Median survival: 11 days
  Net mean percent weight change, day 7: +13%
  Range of deaths (dying animals): 10 to 11 days
Murine P388 leukemia; 1.0 mg/kg qd 1-4
  Long-term survivors: 0/7
  Median increase in lifespan: +20%
  Median survival: 12 days
  Net mean percent weight change, day 7: +6%
  Range of deaths (dying animals): 11 to 18 days
Murine P388 leukemia; 2.0 mg/kg qd 1-4 (Table 4)
  Long-term survivors: 0/7
  Median increase in lifespan: +30%
  Median survival: 13 days
  Net mean percent weight change, day 7: +7%
  Range of deaths (dying animals): 12 to 14 days
Murine P388 leukemia; 2.7 mg/kg qd 1-4
  Long-term survivors: 0/7
  Median increase in lifespan: +60%
  Median survival: 16 days
  Net mean percent weight change, day 7: +4%
  Range of deaths (dying animals): 16 to 17 days
Murine P388 leukemia; 4.0 mg/kg qd 1-4 (Table 4)
  Long-term survivors: 0/7
  Median increase in lifespan: +75%
  Median survival: 17.5 days
  Net mean percent weight change, day 7: +2%
  Range of deaths (dying animals): 15 to 20 days
Murine P388 leukemia; 6.0 mg/kg qd 1-4
  Long-term survivors: 0/7
  Median increase in lifespan: +110%
  Median survival: 21 days
  Net mean percent weight change, day 7: +4%
  Range of deaths (dying animals): 19 to 24 days
Murine P388 leukemia; 9.0 mg/kg qd 1-4
  Median increase in lifespan: +250%
  Median survival: 35 days
  Net mean percent weight change, day 7: -2%
  Range of deaths (dying animals): 24 to 35 days
Murine P388 leukemia; 9.0 mg/kg qd 1-4, sacrifice day 43
  Long-term survivors: 3/7
Murine P388 leukemia; 10.0 mg/kg qd 1-4
  Median increase in lifespan: > +500%
  Net mean percent weight change, day 7: -1%
  Range of deaths (dying animals): 38 days
Murine P388 leukemia; 10.0 mg/kg qd 1-4, sacrifice day 60
  Long-term survivors: 5/7
Murine P388 leukemia; 11.0 mg/kg qd 1-4
  Median increase in lifespan: > +500%
  Net mean percent weight change, day 7: +1%
  Range of deaths (dying animals): 28 days
Murine P388 leukemia; 11.0 mg/kg qd 1-4, sacrifice day 60
  Long-term survivors: 5/6
Murine P388 leukemia; 12.0 mg/kg day 1 only
  Long-term survivors: 0/7
  Median increase in lifespan: +100%
  Median survival: 20 days
  Net mean percent weight change, day 7: +6%
  Range of death (dying animals): 16 to 22 days
Murine P388 leukemia; 12.5 mg/kg qd 1-4
  Median increase in lifespan: > +540%
  Range of deaths (dying animals): 35 to 40 days
Murine P388 leukemia; 12.5 mg/kg qd 1-4, sacrifice day 64
  Long-term survivors: 4/7
Murine P388 leukemia; 15.0 mg/kg qd 1-4
  Median increase in lifespan: > +540%
  Net mean percent weight change, day 7: -1%
  Range of deaths (dying animals): 32 to 39 days
Murine P388 leukemia; 15.0 mg/kg qd 1-4, sacrifice day 64
  Long-term survivors: 4/7
Murine P388 leukemia; 17.5 mg/kg qd 1-4
  Median increase in lifespan: > +540%
  Net mean percent weight change, day 7: -1%
Murine P388 leukemia; 17.5 mg/kg qd 1-4, sacrifice day 64
  Long-term survivors: 6/6
Murine P388 leukemia; 18.0 mg/kg day 1 only
  Median increase in lifespan: +210%
  Median survival: 31 days
  Net mean percent weight change, day 7: +7%
  Range of death (dying animals): 18 to 35 days
Murine P388 leukemia; 18.0 mg/kg day 1 only, sacrifice day 60
  Long-term survivors: 1/7
Murine P388 leukemia; 27.0 mg/kg day 1 only
  Median increase in lifespan: +230%
  Median survival: 33 days
  Net mean percent weight change, day 7: +9%
  Range of death (dying animals): 23 to 33 days
Murine P388 leukemia; 27.0 mg/kg day 1 only, sacrifice day 60
  Long-term survivors: 3/7
Murine P388 leukemia; 27.0 mg/kg day 3 only
  Long-term survivors: 0/7
  Median increase in lifespan: +210%
  Median survival: 31 days
  Net mean percent weight change, day 7: +17%
  Range of death (dying animals): 12 to 49 days
Murine P388 leukemia; 40.5 mg/kg day 1 only
  Median increase in lifespan: > +500%
  Net mean percent weight change, day 7: -3%
Murine P388 leukemia; 40.5 mg/kg day 1 only, sacrifice day 60
  Long-term survivors: 7/7
Murine P388 leukemia; 40.5 mg/kg day 3 only
  Median increase in lifespan: > +500%
  Net mean percent weight change, day 7: -4%
  Range of death (dying animals): 45 days
Murine P388 leukemia; 40.5 mg/kg day 3 only, sacrifice day 60
  Long-term survivors: 6/7
Murine P388 leukemia; tumor-bearing animals
  toxicity / myelosuppression at curative doses: No such effect appears to be present in tumor-bearing animals; also recorded: lack of toxicity at the curative dose levels
Red blood cells
  change in red blood cell counts: No significant change in red blood cells counts
[1]; P388/ADR, once daily for 4 days, 15.0 to 20.0 mg/kg/day (3 dose levels)
  curative rate: 100%
[1]; [5]
  dose toxicity: nontoxic
  therapeutic effect: significant therapeutic effect
[1]; 15.0 mg/kg qd 1-4
  Median increase in lifespan: > +500%
  Net mean percent weight change, day 7: -4%
  Long-term survivors: 7/7
[1]; 17.5 mg/kg qd 1-4
  Median increase in lifespan: > +500%
  Net mean percent weight change, day 7: -9%
  Long-term survivors: 7/7
[1]; 20.0 mg/kg qd 1-4
  Median increase in lifespan: > +500%
  Net mean percent weight change, day 7: -9%
  Long-term survivors: 7/7
[1]; 27.0 mg/kg d1 only
  Median increase in lifespan: > +500%
  Net mean percent weight change, day 7: +5%
  Range of death (dying animals): 19,26 days
  Long-term survivors: 5/7
[1]; 40.5 mg/kg d1 only
  Median increase in lifespan: > +500%
  Net mean percent weight change, day 7: -0.5%
  Range of death (dying animals): 13,27 days
  Long-term survivors: 5/7
